System: cell cultures (cancer cells)
Assay: Cytotoxic effects in cell cultures, QFA, calicheamicin and huA33 conjugates
Settings: added to cell cultures

## calicheamicin
  cytotoxic effects in vitro: weak cytotoxic effects

— patent US6652853B2, “Method for treating cancer using A33 specific antibodies and chemotherapeutic agents” (Ludwig Institute for Cancer Research, priority 2001, dated 2003)
